Marks after values point to notes of the source that are not given here. Peptide text beside a SMILES is read from it.
System: scalp of dandruff and non-dandruff subjects
Test: Metabolite expression profiling (LC/MS/MS, GC/MS/MS) of scalp D-Squame tape strip extracts: non-dandruff, dandruff baseline, dandruff after 3 weeks anti-dandruff shampoo
Type: in vivo, human
Conditions: for Fold Change Wk 3 Sel vs Dandruff Baseline / Fold Change Wk 3 ZPT vs Dandruff Baseline / Fold Change Wk 3 ZPT vs Non-Dan Baseline / Fold Change Wk 3 Sel vs Non-Dan Baseline: metabolite level in scalp tape strips; for Fold Change Wk 3 Sel vs Dandruff Baseline / Fold Change Wk 3 ZPT vs Dandruff Baseline: standardized to soluble protein; for Fold Change Wk 3 Sel vs Dandruff Baseline: dandruff subjects after 3 weeks 1% selenium sulfide shampoo vs own baseline; for Fold Change Wk 3 ZPT vs Dandruff Baseline: dandruff subjects after 3 weeks 1% zinc pyrithione shampoo vs own baseline; for Fold Change Wk 3 ZPT vs Non-Dan Baseline: dandruff subjects after 3 weeks 1% ZPT shampoo vs non-dandruff subjects; for Fold Change Wk 3 Sel vs Non-Dan Baseline: dandruff subjects after 3 weeks 1% selenium sulfide shampoo vs non-dandruff subjects; for reduction / decrease of metabolite level vs dandruff baseline: after three weeks ZPT shampoo; for decrease of metabolite level vs dandruff baseline: after three weeks selenium sulfide shampoo
Excerpt: In an embodiment, the use of an adhesive device can be used to achieve such sampling. In preparation for such a sampling study for a dandruff sampling, at a baseline visit, a qualified screening grader will complete adherent scalp flaking score (ASFS) grading for each subject and the highest flaking octant will be identified for tape strip sampling. The highest flaking octant will be sampled at baseline and at various time points during and after treatment with product. Tape strips samples will be collected from each subject at each time point (e.g., baseline and week 3).
The tape strip sampling procedure is repeated additional times, as needed, at the same site placing each D-Squame® tape disc on top of the prior sampled area. The D-Squame® tapes after sample collection are placed into the appropriately labeled wells in a labeled plate.
Following the sampling, an extraction and quantitation procedure is conducted. In an embodiment of the present invention, quantitation of small molecules from extracts of D-Squame® Tape Samples can be conducted via analysis by either LC/MS/MS or GC/MS/MS. In this embodiment of the present invention, the sample extraction in preparation for Metabolite expression profiling technology was performed.
The D-Squame® tape sample plates are removed from −80° C. freezer where they are stored following sample collection, and placed on dry ice. The tape strips are inserted into pre-labeled polypropylene collection tubes, adhesive side facing inward. Extraction buffer containing methanol and water is added to each collection tube and then extracted on ice using sonication for 15 min. If necessary, additional tapes are placed in the collection tube containing the extract solution and the extraction process is repeated as a means of concentrating the sample. Each extract solution is isolated from the tape strip and an aliquot of each sample is placed into a pre-labeled polypropylene collection tubes and frozen at −80° C. for metabolite expression profiling analysis. A separate aliquot is specified for soluble protein analysis using a BCA™ Protein Assay Kit. For this analysis, the aliquot consisting of methanol and water is taken to dryness under a gentle stream of nitrogen. The sample is resuspended in an appropriate aqueous buffer (e.g., PBS/SDS (1× PBS+0.2% SDS) and analyzed for soluble protein.
The extracts are analyzed by GC/MS/MS and LC/MS/MS in positive and negative ion mode. Chromatographic separation followed by full scan mass spectra and MS/MS spectra is carried out to record and quantify all detectable ions present in the samples. Metabolites with known chemical structure can be identified by matching the ions' chromatographic retention index and mass spectra fragmentation signatures with reference library entries created from authentic standard metabolites under the identical analytical procedure as the experimental samples. Welch's Two Sample t-tests and matched-pair t-tests are used to analyze the data. […] The statistical analyses are performed on natural log-transformed data to reduce the effect of any potential outliers in the data. Welch's Two Sample t-test comparisons are made between the means of each biochemical from the various groups listed at the top of the tables and are calculated using either or both of the statistical analysis software programs: Array Studio (Omicsoft, Inc) or “R” from the Free Software Foundation, Inc.
Subjects are evaluated by a qualified grader to establish their scalp status. Dandruff subjects are identified by their level of visible flaking as assessed by a qualified grader. Non-dandruff healthy scalp subjects are evaluated at baseline to establish normalized levels of each biomarker. In this study, there are 60 non-dandruff subjects that are evaluated at baseline. […] They are evaluated at baseline, and after 3 weeks of product usage.

[1] = dandruff subjects after 3 weeks treatment with Sel shampoo, metabolite level in scalp tape strip extract
[2] = dandruff subjects after 3 weeks treatment with ZPT shampoo, metabolite level in scalp tape strip extract
[3] = relative metabolite level in scalp tape strips, dandruff subjects after 3 weeks 1% ZPT shampoo
[4] = relative metabolite level in scalp tape strips, dandruff subjects after 3 weeks 1% selenium sulfide shampoo

Compound	Mean Values WEEK 3 TRT Sel [1]	Mean Values WEEK 3 TRT ZPT [2]	Fold Change Wk 3 Sel vs Dandruff Baseline	Fold Change Wk 3 ZPT vs Dandruff Baseline	Fold Change Wk 3 ZPT vs Non-Dan Baseline	Fold Change Wk 3 Sel vs Non-Dan Baseline	reduction / decrease of metabolite level vs dandruff baseline	decrease of metabolite level vs dandruff baseline	Mean Values WEEK 3 TRT ZPT [3]	Mean Values WEEK 3 TRT Sel [4]
CCCCCCCCCCCCCCCCCCCC(=O)O [arachidate (20:0), arachidate]	0.6154	0.7662	0.42* fold	0.55* fold	0.56*** fold	0.45*** fold				
CCCCC/C=C\C/C=C\C/C=C\C/C=C\CCCC(=O)O [arachidonate (20:4n6), arachidonate]							44%	70%		
CCCCCCCCCCCCCCCCCCCCCC(=O)O [behenate (22:0), behenate]			0.84 fold	0.47 fold	0.34* fold	0.57*** fold				
O=C(O)/C=C\c1cnc[nH]1 [cis-urocanate]			1.22 fold	1.19 fold	0.91 fold	0.99 fold				
CCCCC/C=C\C/C=C\CCCCCCCCCC(=O)O [dihomo-linoleate (20:2n6), dihomo-linoleate]	0.214	0.3984	0.15* fold	0.3* fold	0.32* fold	0.17* fold				
CCCCC/C=C\C/C=C\CCCCCCCCCCCC(=O)O [docosadienoate (22:2n6), docosadienoate]	0.1554	0.3022	0.12* fold	0.24* fold	0.28* fold	0.14* fold				
CC/C=C\C/C=C\C/C=C\CCCCCCCCCCCC(=O)O [docosatrienoate (22:3n3), docosatrienoate]	0.2735	0.5705	0.13* fold	0.26* fold	0.32 fold	0.15* fold				
O=P(O)(O)OCC(O)CO (stereo not shown) [glycerol 3-phosphate (G3P)]	0.8007	0.5943								
O=C(O)CCc1cnc[nH]1 [imidazole propionate]									0.8095	0.7836
CC(C)CCCCCCCCCCCCC(=O)O [isopalmitic acid]	0.3034	0.5169	0.23* fold	0.41* fold	0.41* fold	0.24* fold				
CCCCC/C=C\C/C=C\CCCCCCCC(=O)O [linoleate (18:2n6), linoleate]							82%	78%		
CCCCCCCCCCCCCCCCC(=O)O [margarate (17:0), margarate]	0.3903	0.6953	0.31* fold	0.6*** fold	0.45* fold	0.25* fold				
CCCCCCCCCCCCCCCCCCC(=O)O [nonadecanoate (19:0), nonadecanoate]	0.3608	0.5421	0.29* fold	0.47* fold	0.39* fold	0.26* fold				
CCCCCCCC/C=C\CCCCCCCC(=O)NCCO [oleic ethanolamide]	1.1213	1.5447								
CCCCCCCCCCCCCCC(=O)O [pentadecanoate (15:0), pentadecanoate]	0.3057	0.5867	0.19* fold	0.4* fold	0.37* fold	0.19* fold				
CC[C@H](C)[C@H](NC(=O)[C@@H](N)CO)C(=O)O [serylisoleucine*] (H-Ser-Ile-OH)	1.1161	0.9496								
O=C(O)/C=C/c1cnc[nH]1 [trans-urocanate]			0.74* fold	0.87 fold	1.41 fold	1.21 fold			1.0096	0.8661
Eicosenoate [Eicosenoate (20:1n9 or 11)]	0.202	0.3561								
dimethylarginine (SDMA + ADMA)	0.8338	1.0243								
linolenate [alpha or gamma; (18:3n3 or 6)]		0.8941								

Source: patent publication US20140271930A1, “NONINVASIVE METHOD FOR MEASURING METABOLITES FOR SKIN HEALTH” (priority 2013, published 2014)
